Measured values from patent US20120245137A1 (Zalicus Pharmaceuticals Ltd., priority 2009, published 2012).
Read-outs that look alike come from different tables or passages of the source.

Experiments:
Assay type in all cases: cell-based
[1] = target: T-type calcium channel (Homo sapiens, UniProt O43497); test: T-type channel blocking, FLIPR data (Table 6); conditions: CAv3.1
From the text: (§1) Another method, high-throughput spectrophotometric assay, utilizes loading of the cell lines with a fluorescent dye sensitive to intracellular calcium concentration and subsequent examination of the effects of compounds on the ability of depolarization by potassium chloride or other means to alter intracellular calcium levels.

[2] = target: T-type calcium channel (Homo sapiens, UniProt O95180); test: T-type channel blocking, FLIPR data (Table 6); conditions: for CAv3.2 IC50 Ratio closed/inact.: CAv3.2, ratio closed/inactivated IC50
From the text: as §1

[3] = target: Human Cav 2.2 channels (Homo sapiens, UniProt Q00975); test: Fluorescent assay for CaV2.2 channels using potassium depolarization (VIPR/FLIPR); conditions: FLIPR data; for CAv2.2 IC50 Ratio closed/inact.: ratio closed/inactivated IC50
Method in brief: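 HEK293 cells stably expressing human Cav2.2 with α2δ and β subunits plus Kir2.3 were loaded with fluo-4 and incubated 30 min at 25 °C with compound in 4, 12, 25 or 30 mM potassium buffer. Channels were opened with 70 mM potassium (final) and calcium influx was read by fluorescence (Ex 480/Em 535 nm).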

[4] = target: CAv1.2 (Homo sapiens, UniProt Q13936); test: FLIPR data, CAv1.2 channel blocking (Table 6); conditions: for CAv1.2 IC50 Ratio closed/inact.: ratio closed/inactivated IC50
[5] = CAv3.2, closed state, read-out: CAv3.2 IC50 Closed
[6] = CAv3.2, inactivated state, read-out: CAv3.2 IC50 Inact.
[7] = closed state, read-out: CAv2.2 IC50 Closed
[8] = inactivated state, read-out: CAv2.2 IC50 Inact.
[9] = closed state, read-out: CAv1.2 IC50 Closed
[10] = inactivated state, read-out: CAv1.2 IC50 Inact.

Chain of CAv1.2 (Q13936 whole entry): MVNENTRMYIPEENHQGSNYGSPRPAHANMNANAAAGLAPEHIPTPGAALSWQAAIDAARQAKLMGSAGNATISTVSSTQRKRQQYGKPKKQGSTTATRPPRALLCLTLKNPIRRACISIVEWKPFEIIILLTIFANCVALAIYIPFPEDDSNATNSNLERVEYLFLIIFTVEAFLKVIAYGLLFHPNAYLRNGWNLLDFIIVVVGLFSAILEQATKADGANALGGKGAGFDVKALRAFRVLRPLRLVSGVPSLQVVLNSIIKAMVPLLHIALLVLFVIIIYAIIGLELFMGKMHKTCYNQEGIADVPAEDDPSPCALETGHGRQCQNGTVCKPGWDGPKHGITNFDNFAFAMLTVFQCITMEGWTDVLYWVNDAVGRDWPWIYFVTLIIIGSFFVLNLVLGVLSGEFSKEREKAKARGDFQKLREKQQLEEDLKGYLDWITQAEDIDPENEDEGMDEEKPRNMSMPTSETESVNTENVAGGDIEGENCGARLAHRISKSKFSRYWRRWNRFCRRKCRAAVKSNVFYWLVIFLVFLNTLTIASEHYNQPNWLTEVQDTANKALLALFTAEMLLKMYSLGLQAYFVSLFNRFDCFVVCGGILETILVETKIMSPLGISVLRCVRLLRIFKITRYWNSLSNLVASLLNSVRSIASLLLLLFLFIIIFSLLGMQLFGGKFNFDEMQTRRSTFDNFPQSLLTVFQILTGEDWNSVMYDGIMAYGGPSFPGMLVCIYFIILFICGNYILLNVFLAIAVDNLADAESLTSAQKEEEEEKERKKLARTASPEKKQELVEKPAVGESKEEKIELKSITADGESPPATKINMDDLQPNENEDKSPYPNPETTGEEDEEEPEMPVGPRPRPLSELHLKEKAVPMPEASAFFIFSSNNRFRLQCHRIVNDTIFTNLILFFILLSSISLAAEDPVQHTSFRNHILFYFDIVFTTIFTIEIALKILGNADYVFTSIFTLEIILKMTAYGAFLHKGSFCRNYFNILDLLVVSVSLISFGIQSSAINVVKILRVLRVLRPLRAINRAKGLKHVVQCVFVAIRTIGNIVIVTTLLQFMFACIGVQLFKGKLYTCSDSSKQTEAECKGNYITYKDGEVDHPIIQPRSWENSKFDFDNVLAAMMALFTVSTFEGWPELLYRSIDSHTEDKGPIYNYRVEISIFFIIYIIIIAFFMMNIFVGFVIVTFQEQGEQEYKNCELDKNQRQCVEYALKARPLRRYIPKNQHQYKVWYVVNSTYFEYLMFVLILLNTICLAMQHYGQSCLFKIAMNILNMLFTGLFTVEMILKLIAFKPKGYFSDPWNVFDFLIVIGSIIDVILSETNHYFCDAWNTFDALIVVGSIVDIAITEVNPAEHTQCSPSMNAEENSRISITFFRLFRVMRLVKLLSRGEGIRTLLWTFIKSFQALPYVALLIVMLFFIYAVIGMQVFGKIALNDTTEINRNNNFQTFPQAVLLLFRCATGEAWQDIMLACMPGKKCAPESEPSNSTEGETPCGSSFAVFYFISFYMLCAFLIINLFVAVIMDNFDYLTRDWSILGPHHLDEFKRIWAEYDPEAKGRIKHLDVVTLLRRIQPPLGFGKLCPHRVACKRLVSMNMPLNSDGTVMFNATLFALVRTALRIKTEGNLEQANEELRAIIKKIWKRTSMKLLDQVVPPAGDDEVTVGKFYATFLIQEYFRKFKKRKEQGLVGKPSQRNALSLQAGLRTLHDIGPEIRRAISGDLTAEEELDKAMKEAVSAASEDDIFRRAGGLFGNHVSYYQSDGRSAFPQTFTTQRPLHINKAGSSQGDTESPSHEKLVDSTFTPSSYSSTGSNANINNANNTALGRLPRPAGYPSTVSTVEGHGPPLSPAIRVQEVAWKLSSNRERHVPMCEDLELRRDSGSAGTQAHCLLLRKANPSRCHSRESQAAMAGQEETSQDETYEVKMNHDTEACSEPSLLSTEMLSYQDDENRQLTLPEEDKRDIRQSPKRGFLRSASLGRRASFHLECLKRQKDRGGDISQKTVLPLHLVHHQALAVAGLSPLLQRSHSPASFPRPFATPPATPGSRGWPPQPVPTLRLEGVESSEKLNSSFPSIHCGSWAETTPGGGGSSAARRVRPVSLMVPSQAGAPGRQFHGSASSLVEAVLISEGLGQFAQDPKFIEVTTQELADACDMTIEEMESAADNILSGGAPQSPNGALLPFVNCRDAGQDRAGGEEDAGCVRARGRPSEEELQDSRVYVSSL
Chain of CAv1.2 (P54289 25-1103 partner): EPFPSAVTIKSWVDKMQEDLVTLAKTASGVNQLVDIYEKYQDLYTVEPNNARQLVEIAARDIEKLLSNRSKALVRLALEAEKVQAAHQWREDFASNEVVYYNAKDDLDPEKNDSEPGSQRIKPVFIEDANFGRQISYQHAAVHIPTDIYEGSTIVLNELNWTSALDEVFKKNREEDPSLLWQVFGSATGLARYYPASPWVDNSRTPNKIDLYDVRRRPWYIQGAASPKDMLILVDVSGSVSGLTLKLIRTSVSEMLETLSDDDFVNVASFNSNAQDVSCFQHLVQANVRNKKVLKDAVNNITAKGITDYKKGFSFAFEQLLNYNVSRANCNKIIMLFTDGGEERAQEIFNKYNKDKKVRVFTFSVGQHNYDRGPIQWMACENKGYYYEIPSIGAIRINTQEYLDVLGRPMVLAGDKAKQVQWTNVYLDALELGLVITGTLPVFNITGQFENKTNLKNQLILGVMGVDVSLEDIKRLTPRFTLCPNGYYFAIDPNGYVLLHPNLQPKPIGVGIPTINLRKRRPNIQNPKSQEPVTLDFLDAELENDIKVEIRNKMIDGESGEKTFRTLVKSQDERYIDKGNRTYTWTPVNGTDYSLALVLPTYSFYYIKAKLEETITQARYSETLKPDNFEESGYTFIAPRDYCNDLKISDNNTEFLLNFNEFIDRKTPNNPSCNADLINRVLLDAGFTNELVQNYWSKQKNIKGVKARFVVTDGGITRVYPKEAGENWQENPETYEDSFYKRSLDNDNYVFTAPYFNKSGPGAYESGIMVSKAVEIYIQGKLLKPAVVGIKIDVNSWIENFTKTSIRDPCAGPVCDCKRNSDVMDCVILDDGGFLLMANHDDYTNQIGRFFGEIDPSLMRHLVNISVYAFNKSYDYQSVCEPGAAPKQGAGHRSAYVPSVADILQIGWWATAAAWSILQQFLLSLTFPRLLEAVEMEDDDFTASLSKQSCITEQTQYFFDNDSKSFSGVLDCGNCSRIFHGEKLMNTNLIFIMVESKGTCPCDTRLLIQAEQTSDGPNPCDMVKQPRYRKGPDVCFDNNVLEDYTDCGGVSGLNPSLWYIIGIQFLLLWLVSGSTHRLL
Chain of CAv1.2 (Q08289 whole entry partner): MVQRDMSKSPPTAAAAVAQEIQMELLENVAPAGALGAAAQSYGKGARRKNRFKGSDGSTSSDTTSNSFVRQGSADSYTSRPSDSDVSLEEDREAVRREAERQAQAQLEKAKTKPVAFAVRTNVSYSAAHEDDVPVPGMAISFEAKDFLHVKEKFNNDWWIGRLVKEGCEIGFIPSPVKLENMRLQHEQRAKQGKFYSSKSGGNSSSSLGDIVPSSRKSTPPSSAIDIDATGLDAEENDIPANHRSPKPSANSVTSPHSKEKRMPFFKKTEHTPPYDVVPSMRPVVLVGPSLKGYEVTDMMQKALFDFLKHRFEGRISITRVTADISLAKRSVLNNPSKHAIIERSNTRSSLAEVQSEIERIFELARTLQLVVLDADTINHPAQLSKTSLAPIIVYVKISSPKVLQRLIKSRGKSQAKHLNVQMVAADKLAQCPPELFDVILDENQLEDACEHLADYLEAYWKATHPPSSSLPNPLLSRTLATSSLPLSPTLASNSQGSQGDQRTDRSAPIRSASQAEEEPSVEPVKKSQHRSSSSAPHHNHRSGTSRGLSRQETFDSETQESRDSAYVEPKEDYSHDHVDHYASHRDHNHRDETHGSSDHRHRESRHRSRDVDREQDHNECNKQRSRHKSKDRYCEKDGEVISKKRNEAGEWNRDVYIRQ

| SMILES | IC50 [1] [nM] | IC50 [2, 5] [nM] | IC50 [2, 6] [nM] | CAv3.2 IC50 Ratio closed/inact. [2] | IC50 [3, 7] [nM] | IC50 [3, 8] [nM] | CAv2.2 IC50 Ratio closed/inact. [3] | IC50 [4, 9] [nM] | IC50 [4, 10] [nM] | CAv1.2 IC50 Ratio closed/inact. [4] |
| --- | --- | --- | --- | --- | --- | --- | --- | --- | --- | --- |
| CC(C)([C@H]1C[C@H](NC(=O)c2ccc(C(F)(F)F)cn2)C1)S(=O)(=O)c1cccc(C(F)(F)F)c1 [Compound 676] | 3870 | 4270 | 3790 | 1.1 | 1850 | 160 | 11.6 | 7960 | 3250 | 2.4 |
| CC(C)([C@H]1C[C@H](NC(=O)c2ccc(C(F)(F)F)cc2)C1)S(=O)(=O)c1cccc(C(F)(F)F)c1 [Compound 677] | 2790 | 1780 | 1820 | 1 | 2860 | 220 | 13 | 6350 | 2230 | 2.8 |
| CC(C)S(=O)(=O)c1cc(C(F)(F)F)cnc1C(=O)NC[C@H]1C[C@@H](C(C)(C)S(=O)(=O)c2cccc(C(F)(F)F)c2)C1 [Compound 681] | 4820 | 5930 | – | – | 9890 | 160 | 61.8 | ≥ 10000 | 2620 | 3.8 |
| CC(C)(C1CC(CNC(=O)c2cc(C(F)(F)F)n[nH]2)C1)S(=O)(=O)c1cccc(C(F)(F)F)c1 (centres unmarked) [Compound 682] | ≥ 10000 | 2310 | – | – | 6640 | 530 | 12.5 | ≥ 10000 | 2160 | 4.6 |
| CC(C)([C@H]1C[C@@H](CNC(=O)c2ccnc(C(F)(F)F)n2)C1)S(=O)(=O)c1cccc(C(F)(F)F)c1 [Compound 683] | 5530 | 5450 | – | – | 2770 | 260 | 10.7 | ≥ 10000 | 6110 | 1.6 |
| CC(C)([C@H]1C[C@@H](CNC(=O)c2ncc(C(F)(F)F)cn2)C1)S(=O)(=O)c1cccc(C(F)(F)F)c1 [Compound 684] | 4650 | 4670 | – | – | 8030 | 650 | 12.4 | ≥ 10000 | 5350 | 1.9 |
| CC(C)([C@H]1C[C@@H](CNC(=O)c2ccc(F)c(Cl)c2)C1)S(=O)(=O)c1cccc(C(F)(F)F)c1 [Compound 685] | 380 | 440 | – | – | 1870 | 180 | 10.4 | 4710 | 1010 | 4.7 |
| CC(C)([C@H]1C[C@@H](CNC(=O)c2ccc(OCC(F)(F)F)nc2)C1)S(=O)(=O)c1cccc(C(F)(F)F)c1 [Compound 686] | 1170 | 1200 | – | – | 2470 | 260 | 9.5 | 4420 | 1100 | 4 |
| CC(C)([C@H]1C[C@@H](CNC(=O)c2ccnc(C(F)(F)F)c2)C1)S(=O)(=O)c1cccc(C(F)(F)F)c1 [Compound 687] | 2610 | 1650 | – | – | 4110 | 530 | 7.8 | ≥ 10000 | 2390 | 4.2 |
| CC(C)([C@H]1C[C@@H](CNC(=O)c2ccc(Cl)c(OC(F)(F)F)c2)C1)S(=O)(=O)c1cccc(C(F)(F)F)c1 [Compound 688] | 250 | 450 | 170 | 2.6 | 3400 | 220 | 15.5 | 4590 | 450 | 10.2 |
| CC(C)([C@H]1C[C@@H](CNC(=O)c2ncc(C(F)(F)F)cc2S(C)(=O)=O)C1)S(=O)(=O)c1cccc(C(F)(F)F)c1 [Compound 690] | ≥ 10000 | ≥ 10000 | – | – | 10000 | 450 | 22.2 | ≥ 10000 | ≥ 10000 | – |
| CC(C)([C@H]1C[C@@H](CNc2ccnc(C(F)(F)F)n2)C1)S(=O)(=O)c1cccc(C(F)(F)F)c1 [Compound 691] | 5830 | 7350 | – | – | 4030 | 530 | 7.6 | 4940 | 2220 | 2.2 |
